The values that follow come from patent publication US12115224B2, “Polypeptide conjugates for intracellular delivery of stapled peptides” (Ohio State Innovation Foundation, priority 2017, dated 2024).

A word on the pKa: it is the pH at which an ionisable group is half protonated. Usually IC50 stands for the concentration at which inhibition is half-maximal.

For data set [1] the following is noted: cited from earlier work.
The test system of data set [2] is SJSA-1 cells. Nature of the data set: Annexin V/propidium iodide flow cytometry assay. Format: cell-based. Conditions: 48-hour treatment, 10% FBS. How it is done:
The percentage of Annexin V+/PI+ and Annexin V+/PI− SJSA-1 cells after 48-hour treatment of inhibitors in presence of 10% FBS was measured.
The mode of action (MOA) of CPP9-sPDI upon cytosolic delivery of the MDM2 inhibitor was also considered. […] This behavior is similar to Nutlin-3a, which is known to induce p53-dependent apoptosis in certain cancer cell lines. In this study, the percentage of Annexin V+/PI+ and Annexin V+/PI− SJSA-1 cells is determined after 48-hour treatment of inhibitors in presence of 10% FBS.
(Flow cytometry measures light scatter and fluorescence of single cells or particles in a stream.)

A short description of data set [3]: Aqueous solubility (observation).
Data set [4] relates to HeLa cells. The data set can be described thus: Live-cell confocal microscopy of FITC-labeled peptides. In kind it is cell-based. The conditions noted are these: 5 μM FITC-labeled peptide, 2 h, 37° C. The method, then:
HeLa cells were treated with 5 μM FITC-labeled peptide for 2 h at 37° C., washed to remove excess peptide, and subjected to live-cell confocal microscopy. I, DIC; II, GFP channel; and III, overlap of I and II.
Four pairs of the peptides from Table 6 were also labeled with FITC and their entry into HeLa cells were monitored by live-cell confocal microscopy (FIG. 4).
To assess delivery aptitude of each conjugate, peptides 22-25 were labeled with FITC and their entry into HeLa cells was monitored by live-cell confocal microscopy (FIG. 21). HeLa cells were treated with 5 μM FITC-labeled peptide for 2 h at 37° C. and washed to remove excess peptide.

A short description of data set [5]: Anti-proliferation MTT assay, SJSA-1. Conditions: 72-hour treatment, 0-20 μM, 10% FBS, read-out: IC50 (cytotoxicity). Format: cell-based. The method, then: IC50 values (μM) are provided for each test compound.
In addition, the anti-proliferative effects of CPP9-sPDI (structure 23) were evaluated. FIG. 23 compares the effects of CPP9-sPDI, Nutlin-3a, R9-sPDI, sPDI, CPP9-sPDI(F10A) and Tat-sPDI (0-20 μM) on the viability of SJSA-1 cell line after 72-hour treatment in the presence of 10% FBS as measured by MTT assay.
(In general: Tetrazolium assays rely on reduction of a dye to a coloured formazan, in cell work by metabolically active cells.)

Data set [6] can be described thus: Serum stability in 25% human serum. In kind it is in vitro ADME. The conditions noted are these: 37° C., read-out: compound detected at the end of the study. The method, then: FIG. 25 is a graph showing the stability of CPP9-sPDI (structure 23) in 25% human serum at 37° C.
The serum stability of CPP9-sPDI was evaluated by incubating the conjugate in 25% human serum at 37° C. over 24 hours. […] The observed level of serum stability (cargo region) may impact the IC50 values measured for this compound.

Data set [7] has as its target MDM2 (Homo sapiens, UniProt Q00987). The data set can be described thus: Fluorescence anisotropy (FA)-based competition with FITC-labeled peptide 1 for binding to MDM2. The conditions noted are these: unlabeled peptides 4 and 5. An excerpt:
Expression and Purification of GST-MDM2.
A general note: In fluorescence polarisation assays a small probe gives low polarisation when free and higher when bound to something large.

For data set [8], the system named is HCT116 p53+/+. Nature of the data set: MTT viability assay, HCT116 WT p53. In kind it is cell-based, human. Conditions: 0-12.5 μM, 48 h, 10% FBS. The method, then:
(§1) Peptides 4 and 5 were tested for anticancer activity against human colon carcinoma cell lines harboring WT (HCT116 p53+/+) and mutant p53 genes (HCT116 p53−/−) using the MTT viability assay. […] See Vassilev, L. T., et al., Science, 303, 844-848 (2004).
(§2) MTT Assay. HCT116 p53 wild type and HCT116 p53^−/− cells were seeded in 96-well plate with 3×10^3 cells per well, and allowed to grow overnight. Different concentrations of peptides (0-12.5 μM) were added to the cells in McCoy's 5A medium supplemented with 10% FBS and 1% penicillin/streptomycin and incubated at 37° C. for 48 h in the presence of 5% CO2. After that, 10 μL of an MTT stock solution (5 mg/mL) was added into each well and the plate was incubated at 37° C. for 4 h. 100 μL of SDS-HCl solubilizing solution was added and the plate was incubated at 37° C. overnight. The absorbance of the formazan product formed was measured at 570 nm on a Tecan microtiter plate reader.

The test system of data set [9] is HCT116 p53−/−. The data set can be described thus: MTT viability assay, HCT116 p53-/-. Conditions: 0-12.5 μM, 48 h, 10% FBS. Format: cell-based, human. The method, then: as §1, §2

Numbered stars: 1 amine (or outer) side, 2 acyl side, 3 side chain; on linkers, the order of the positions; unused ones are H or OH. Bridge positions count the residues as written; N and C are the ends. Square brackets hold non-standard residues; d marks the D form. Peptide text beside a SMILES is read from it. I, II: the chains in the order shown. * marks the point of attachment. X3 = NC(=O)[C@H](CCCCNC(=O)CON=C(C[*:1])C[*:2])NC(=O)COCCOCCN[*:3]; FITC = O=C1OC2(c3ccc(O)cc3Oc3cc(O)ccc32)c2ccc(NC(=S)*)cc21; 2Nal = N[C@@H](Cc1ccc2ccccc2c1)C(=O)O; NF = 5(6)-carboxynaphthofluorescein; CH2COCH2 = O=C(C[*:1])C[*:2]; hCys = N[C@@H](CCS)C(=O)O; AEEA = NCCOCCOCC(=O)O; βAla = NCCC(=O)O

With 5(6)-carboxynaphthofluorescein [NF], in data set [1], the pKa is reported as 7.8.

`CC(=O)N[C@@H](CC(C)C)C(=O)N[C@H](C(=O)N[C@@H](Cc1ccccc1)C(=O)N[C@H]1CC(=O)NCCCC[C@@H](C(=O)N[C@@H](CCC(N)=O)C(=O)N[C@@H](CC(C)C)C(=O)N[C@H](C(=O)N[C@@H](CO)C(=O)NCCOCCOCC(=O)N[C@@H](CCCCNC(=O)CC[C@@H]2NC(=O)[C@@H](CCCNC(=N)N)NC(=O)[C@H](CCCNC(=N)N)NC(=O)[C@@H](CCCNC(=N)N)NC(=O)[C@H](CCCNC(=N)N)NC(=O)[C@H](Cc3ccc4ccccc4c3)NC(=O)[C@@H](Cc3ccccc3)NC2=O)C(N)=O)[C@@H](C)O)NC(=O)[C@H](Cc2c[nH]c3ccccc23)NC(=O)[C@H](Cc2ccc(O)cc2)NC(=O)[C@H](Cc2c[nH]cn2)NC1=O)[C@@H](C)O` [Peptide 23] (I: Ac-LTFDHYWKQLTS[AEEA]K-NH2 / II: cyclo([2Nal]R[dR]R[dR]E[dF]); lactam I:4-I:8; amide I:14-II:6): the “mode of anti-proliferative action (Annexin V+/PI+ and Annexin V+/PI− cells)” value in [2] is reported as “mediated by apoptotic pathways”.

With “NF-βA-TYRGAAQCAAQCVREV-NH2 ({NF-βAla}-TYRGAAQCAAQCVREV-NH2; bridge 8-12; not fully specified (bridges)) [Peptide 20]”, the aqueous solubility result in data set [3] is “limited solubility”.

For `CC(=O)N[C@@H](CC(C)C)C(=O)N[C@H](C(=O)N[C@@H](Cc1ccccc1)C(=O)N[C@H]1CC(=O)NCCCC[C@@H](C(=O)N[C@@H](CCC(N)=O)C(=O)N[C@@H](CC(C)C)C(=O)N[C@H](C(=O)N[C@@H](CO)C(=O)NCCOCCOCC(=O)N[C@@H](CCCCNC(=O)CC[C@@H]2NC(=O)[C@@H](CCCNC(=N)N)NC(=O)[C@H](CCCNC(=N)N)NC(=O)[C@@H](CCCNC(=N)N)NC(=O)[C@H](CCCNC(=N)N)NC(=O)[C@H](Cc3ccc4ccccc4c3)NC(=O)[C@@H](Cc3ccccc3)NC2=O)C(N)=O)[C@@H](C)O)NC(=O)[C@H](Cc2c[nH]c3ccccc23)NC(=O)[C@H](Cc2ccc(O)cc2)NC(=O)[C@H](Cc2cnc[nH]2)NC1=O)[C@@H](C)O` [Peptide 23] (I: Ac-LTFDHYWKQLTS[AEEA]K-NH2 / II: cyclo([2Nal]R[dR]R[dR]E[dF]); lactam I:4-I:8; amide I:14-II:6), the “cellular uptake by confocal microscopy” value in [4] was “most effective conjugate for delivering sPDI”. In addition, the IC50 in data set [5] was found to be 3860 nM. In addition, the remaining at 24 h in data set [6] came to 25%.

`CC(=O)N[C@@H](CC(C)C)C(=O)N[C@H](C(=O)N[C@@H](Cc1ccccc1)C(=O)N[C@H]1CCSCC(=NOCC(=O)NCCCC[C@H](NC(=O)COCCOCCNC(=O)CC[C@@H]2NC(=O)[C@@H](CCCNC(=N)N)NC(=O)[C@H](CCCNC(=N)N)NC(=O)[C@@H](CCCNC(=N)N)NC(=O)[C@H](CCCNC(=N)N)NC(=O)[C@H](Cc3ccc4ccccc4c3)NC(=O)[C@@H](Cc3ccccc3)NC2=O)C(N)=O)CSCC[C@@H](C(=O)N[C@@H](CCC(N)=O)C(=O)N[C@@H](CC(C)C)C(=O)N[C@H](C(=O)N[C@@H](CO)C(=O)NCCOCCOCC(=O)N[C@@H](CCCCN)C(N)=O)[C@@H](C)O)NC(=O)[C@H](Cc2c[nH]c3ccccc23)NC(=O)[C@H](Cc2ccc(O)cc2)NC(=O)[C@H](Cc2c[nH]cn2)NC1=O)[C@@H](C)O` [Peptide 4] (I: Ac-LTF[hCys]HYW[hCys]QLTS[AEEA]K-NH2 / II: cyclo([2Nal]R[dR]R[dR]E[dF]); linker I:4-I:8-II:6 via X3): in [7], the IC50 was determined as 220 nM.

With `COc1ccc(C2=N[C@@H](c3ccc(Cl)cc3)[C@@H](c3ccc(Cl)cc3)N2C(=O)N2CCNC(=O)C2)c(OC(C)C)c1` [Nutlin-3, reference compound], the “effect on viability of WT p53 cells” value in data set [8] is listed as “selectively killed the WT p53 cells in a dose-dependent manner”.

As to `CC(=O)N[C@@H](CC(C)C)C(=O)N[C@H](C(=O)N[C@@H](Cc1ccccc1)C(=O)N[C@H]1CCSCC(=O)CSCC[C@@H](C(=O)N[C@@H](CCC(N)=O)C(=O)N[C@@H](CC(C)C)C(=O)N[C@H](C(=O)N[C@@H](CO)C(=O)NCCOCCOCC(=O)N[C@@H](CCCCNC(=S)Nc2ccc3c(c2)C(=O)OC32c3ccc(O)cc3Oc3cc(O)ccc32)C(N)=O)[C@@H](C)O)NC(=O)[C@H](Cc2c[nH]c3ccccc23)NC(=O)[C@H](Cc2ccc(O)cc2)NC(=O)[C@H](Cc2c[nH]cn2)NC1=O)[C@@H](C)O` [Peptide 2] (Ac-LTF[hCys]HYW[hCys]QLTS[AEEA]K(FITC)-NH2; linker 4-8 via CH2COCH2), the “effect on viability of WT p53 cells” value in data set [8] is on record as “no significant effect”. Besides, in data set [9], the “effect on viability of p53 mutant cells” value was “no significant effect”.
